Tests used:
HEP3B2.7-1 = experiment: CellTiter-Glo cell viability, liver cell lines, 8 days; format: cell-based; conditions: HEP3B2.7-1, Table 5, similar experiment
Method: (§1) The objective of this study is to investigate the effect of Compound 1 on cell viability of various types of liver cancer. Ten (10) different liver cancer cell lines were employed in the study. Each liver cell line shown in Table 4 was treated with Compound 1, pentamidine, as reference control, a standard of care (cisplatin) and culture medium contains 0.2% [v/v] DMSO vehicle control and IC50 values were obtained as described above. The raw data values from the CellTiter-Glo™ cell viability assay expressed in relative luminescence units were normalized to the vehicle for each individual plate, and any reduction in luminescence indicated a decrease in viability (%). The data was analyzed in GraphPad PRISM using a non-linear sigmoidal plot with variable slope (asymmetric four-point linear regression), and an IC50 value for each compound was generated. The experiment tested pentamidine, compound 1, and standard-of-care control Cisplatin in full growth media for 8 days. Cells were initially treated with the test compounds on Day 0, and the cells were then replenished with fresh compound dilutions on Day 3. Pentamidine, Compound 1, and cisplatin were tested at 9 concentration points; 100, 33.33, 11.11, 3.70, 1.23, 0.41, 0.14, 0.05, and 0.02 μM (final DMSO concentration=0.5%). In particular, the IC50 values of pentamidine and Compound 1 were 0.8 and 0.6 μM in Hep3B-luc, respectively.

SK-HEP-1 = experiment: as above; format: cell-based; conditions: Homo sapiens, SK-HEP1, SK-HEP-1, Table 5, similar experiment
Method: as §1

Human microsomal CL rate = format: in vitro ADME; conditions: human microsomes
NCI-H69 = experiment: CellTiter-Glo luminescent cell viability assay; format: cell-based; conditions: Homo sapiens
Method: The objective of this study is to investigate potential cell killing effect of Compounds 1-15 on 3 cancer cell lines. 50% inhibition concentration (IC50) was determined for these compounds in various cancer cell lines using CellTiter-Glo™ luminescent cell viability assay at different compound concentrations. Each cell line (e.g., NCI-H209; NCI-H69; and SW1271) was treated with Compounds 1-15 and culture medium contains 0.2% [v/v] DMSO vehicle control. All the cells were cultured in the media supplemented with 10-20% fetal bovine serum at 37° C., 5% CO2 and 95% humidity.

| Compound | IC50 (HEP3B2.7-1) | IC50 (SK-HEP-1) | microsomal CLint (Human microsomal CL rate) | IC50 (NCI-H69) |
| --- | --- | --- | --- | --- |
| N=C(N)c1ccc(OCCCCCOc2cnc(C(=N)N)cn2)cc1 [Compound 4, 5-((5-(4-carbamimidoylphenoxy)pentyl)oxy)pyrazine-2-carboximidamide] | 1.91 µM | 5.95 µM |  |  |
| N=C(N)c1cccc(CCCCCCCc2cccc(C(=N)N)n2)n1 [Compound 8, 6,6′-(heptane-1,7-diyl)dipicolinimidamide] |  |  | 11 µL/min/mg | 0.687 µM |
| N=C(N)c1cncc(CCCCCCCc2cncc(C(=N)N)c2)c1 [Compound 9, 5,5′-(heptane-1,7-diyl)dinicotinimidamide] |  |  | 13 µL/min/mg | 5.28 µM |
| N=C(N)c1ccc(CCCCCCCc2ccc(C(=N)N)cn2)nc1 [Compound 10, 6,6′-(heptane-1,7-diyl)dinicotinimidamide] |  |  |  | 22.2 µM |
| N=C(N)c1cccc(OCCCCCOc2ccc(C(=N)N)nc2)c1 [Compound 11, 5-(5-(3-carbamimidoylphenoxy)pentyloxy)picolinimidamide] |  |  | 5.2 µL/min/mg | 0.62 µM |
| N=C(N)c1ccc(O[C@H]2CC[C@H](Oc3ccc(C(=N)N)nc3)CC2)cc1 [Compound 13, 5-(((1r,4r)-4-(4-carbamimidoylphenoxy)cyclohexyl)oxy)picolinimidamide] |  |  | 11 µL/min/mg | 2.11 µM |
| N=C(N)c1ccc(O[C@H]2CC[C@@H](Oc3ccc(C(=N)N)nc3)CC2)cc1 [Compound 14, 5-(((1s,4s)-4-(4-carbamimidoylphenoxy)cyclohexyl)oxy)picolinimidamide] |  |  | 15.3 µL/min/mg | 1.1 µM |
| N=C(N)c1cccc(OCCCCCOc2ccnc(C(=N)N)c2)c1 [Compound 15, 4-(5-(3-carbamimidoylphenoxy)pentyloxy)picolinimidamide] |  |  | 3.2 µL/min/mg | 0.49 µM |
| N=C(N)c1ccc(OCCCOc2ccc(C(=N)N)nc2)cc1 [Compound 17, 5-(3-(4-carbamimidoylphenoxy)propoxy)picolinimidamide] |  |  | 8.1 µL/min/mg |  |
| N=C(N)c1ccc(CC[C@@H]2CCC[C@H](CCc3ccc(C(=N)N)nc3)C2)cc1 [Compound 18, 5-{2-[(1R,3S)-3-[2-(4-carbamimidoylphenyl)ethyl]cyclohexyl]ethyl}pyridine-2-carboximidamide] |  |  | 9.5 µL/min/mg |  |

Second part, the molecule after the results:

| IC50 (HEP3B2.7-1) | IC50 (SK-HEP-1) | microsomal CLint (Human microsomal CL rate) | IC50 (NCI-H69) | Compound |
| --- | --- | --- | --- | --- |
|  |  | 7.5 µL/min/mg | 1.58 µM | N=C(N)c1ccc(OCCCCCOc2ccnc(C(=N)N)c2)cn1 [Compound 12, 4-((5-((6-carbamimidoylpyridin-3-yl)oxy)pentyl)oxy)picolinimidamide] |
|  |  | 4.6 µL/min/mg |  | N=C(N)c1ccc(OCCCCOc2ccc(C(=N)N)nc2)cn1 [Compound 16, 5,5′-(butane-1,4-diylbis(oxy))dipicolinimidamide] |
| 0.222 µM | 0.84 µM | 27.7 µL/min/mg |  | N=C(N)c1ccc(OCCCCCOc2ccnc(C(=N)N)c2)cc1 [Compound 19, 4-{[5-(4-carbamimidoylphenoxy)pentyl]oxy}pyridine-2-carboximidamide] |
|  |  | 4 µL/min/mg |  | N=C(N)c1ccc(OCCCCCOc2ccc(C(=N)N)nc2)cn1 [Compound 20, 5-({5-[(6-carbamimidoylpyridin-3-yl)oxy]pentyl}oxy)pyridine-2-carboximidamide] |
|  |  | 5.1 µL/min/mg |  | N=C(N)c1cc(OCCCCCOc2ccnc(C(=N)N)c2)ccn1 [Compound 21] |

From patent US20250388542A1, “ANALOGUES OF PENTAMIDINE AND USES THEREFOR” (Auransa Inc., priority 2018, published 2025)
